{"source": "patent US20210329894A1", "about": "“METHOD FOR PREPARING ALZHEIMER'S DISEASE (AD) ANIMAL MODEL” (Shanxi Medical University, priority 2020, published 2021)", "assay_type_in_all_cases": "in vivo", "key": {"[1]": {"system": "ApoE4 transgenic mice (KI)", "assay": "new object recognition test", "settings": "4 mmol/L Al(mal)3 i.p. 10 ml/kg, 60 days, testing session T2, 1 h after training, compared among all groups", "method": "(§1) Example 1 Establishment of aluminum-exposed ApoE4 transgenic mouse model 16 healthy male ApoE4 transgenic mice (KI), 16 ApoE knockout mice (KO) and 16 wild-type mice (C57BL/6J, WT) aged 4 to 5 weeks were selected, with similar activities and weights of 18 g to 20 g. They were randomly divided into control group (NS) and aluminum-exposed group (Al), with 8 animals in each group.\n(§2) An 8 mmol/L aluminum chloride solution and a 24 mmol/L maltol solution were prepared with sterilized triple distilled water, then the two solutions were mixed in a volume ratio of 1:1 to obtain a Al(mal)3 solution with a final concentration of 4 mmol/L, and pH was adjusted to 7.4 with 10% NaOH. […]\nIn this example, a new object recognition test was conducted on the basis of the above examples. […] The time periods for a mouse to explore the two areas were both recorded by a recording instrument, and the recording time was set to 10 min, after which the mouse was taken out and put back in the original cage. […] Testing session (T2): 1 h after the training session ended, one of the cubes was replaced with a cone, the mouse was placed in exactly the same way as the training session, and the time periods for the mouse to explore two different objects were recorded as a new object recognition time (New, N) and a familiar object time (Familiar, F). […]"}, "pThr181": {"system": "pThr181", "assay": "expression level of pThr181 in the hippocampus (Western blot)", "settings": "KI mice, 4 mmol/L Al(mal)3 i.p. 10 ml/kg, 60 days; relative expression by Western blot", "method": "as §1\n(§3) An 8 mmol/L aluminum chloride solution and a 24 mmol/L maltol solution were prepared with sterilized triple distilled water, then the two solutions were mixed in a volume ratio of 1:1 to obtain a Al(mal)3 solution with a final concentration of 4 mmol/L, and pH was adjusted to 7.4 with 10% NaOH. The animals in the aluminum-exposed group were intraperitoneally injected with the Al(mal)3 at a volume of 10 ml/kg, with aluminum exposure for 60 days, and interval time of 2 days for every 5 days; and the control group was given the same volume of normal saline (NS).\n(§4) This example was different from the above examples in that the determination of expression levels of Tau proteins in the brain was added. The tau-5 and pThr181 levels in animals of each group were determined by Western blot. […] The gray value was analyzed with Quantity one software, and the relative expression level of protein was calculated."}, "[2]": {"assay": "determination of aluminum content in the brain (ICP-MS)", "settings": "each aluminum-exposed group (KI, KO, WT mice), 4 mmol/L Al(mal)3 i.p. 10 ml/kg, 60 days; vs control group", "method": "as §1, §2\nThis example was different from the above Example in that the determination of aluminum content in the brain was added. 60 mg of mouse brain tissue was weighed and put into a microwave digestion tube, 3 ml of nitric acid (guaranteed reagent) was added, and the tube was put in a microwave digestion system for microwave digestion according to a program; after digestion, the solution was filtered with a 0.22 μm microporous filter, and a resulting filtrate was collected in a 5 ml deionized centrifuge tube and then diluted to […] with nitric acid (guaranteed reagent); and the sample was diluted 25 times with Wahaha water, and aluminum content was detected with ICP-MS."}, "Aβ42": {"system": "Aβ42", "assay": "determination of Aβ42 content in the hippocampus (Elisa kit)", "settings": "KI mice, 4 mmol/L Al(mal)3 i.p. 10 ml/kg, 60 days", "method": "as §1, §3\nThis example was different from the above examples in that the determination of Aβ42 content was added. The hippocampus tissue of a mouse was stripped, and crushed with an ultrasonic processor; the hippocampal tissue protein was extracted with a tissue protein extraction reagent; and the Aβ42 content in the hippocampus was detected with an Aβ42 protein Elisa kit."}, "[3]": {"system": "ApoE4 transgenic mice (KI)", "assay": "Morris water maze (place navigation test and space exploration experiment)", "settings": "4 mmol/L Al(mal)3 i.p. 10 ml/kg", "method": "as §1, §3\nThis example was different from Example 1 in that a Morris water maze experiment and a place navigation test were added. […]"}, "tau-5": {"system": "tau-5", "assay": "expression level of tau-5 in the hippocampus (Western blot)", "settings": "KI mice, 4 mmol/L Al(mal)3 i.p. 10 ml/kg, 60 days; relative expression by Western blot", "method": "as §1, §3, §4"}}}
{"smiles": "Cc1occc(=O)c1[O][Al]([O]c1c(C)occc1=O)[O]c1c(C)occc1=O", "note": "[Al, Al(mal)3]", "values": [{"measurement": "discrimination index (DI)", "setting": "[1]", "result": "lowest DI"}, {"measurement": "expression level of pThr181 in the hippocampus", "setting": "pThr181", "result": "significantly increased"}, {"measurement": "brain aluminum content", "setting": "[2]", "result": "significantly higher"}, {"measurement": "Aβ42 content in the hippocampus", "setting": "Aβ42", "result": "significantly increased"}, {"measurement": "escape latency (time to find the platform)", "setting": "[3]; 60 days exposure, days 4 and 5 of training, vs control group", "result": "significantly longer"}, {"measurement": "number of crossing the platform", "setting": "[3]; 60 days, space exploration experiment, 60 s, compared among all groups", "result": "least number of crossing the platform"}, {"measurement": "expression level of tau-5 in the hippocampus", "setting": "tau-5", "result": "significantly increased"}]}
